Reference: patent publication US12264155B2, “Compounds, pharmaceutical compositions, and methods of preparing compounds and of their use as ATR kinase inhibitors” (Repare Therapeutics Inc., priority 2018, dated 2025)

test system: ATR kinase (CHK1 phosphorylation at Ser345) in HeLa S3 cells; assay: ATR assay in HeLa S3 cells (CHK1 p-Ser345 AlphaScreen SureFire, gemcitabine); type: cell-based; conditions: Homo sapiens, HeLa S3, HeLa S3 whole cell assay, 3.5 to 4 hours; further: gemcitabine 1.5 µM
Experimental: Media was then replaced by 20 μL per well Opti-MEM no phenol red and 5 μL of serial diluted compounds were added to the assay plate for a final DMSO concentration of 0.5%. […] The plate was incubated at 37° C., 1-5% CO2 for 3.5 to 4 hours.

Structure (SMILES)	IC50
C[C@@H]1COCCN1c1cc(C2(O)CCCOCC2)c2cnn(-c3cc[nH]n3)c2n1 (stereo partly shown) [Compound 111]	2.4 nM
CC(C)N1CCC(O)(c2cc(N3CCOC[C@H]3C)nc3c2cnn3-c2cc[nH]n2)CC1 [Compound 118]	6.4 nM
C[C@@H]1COCCN1c1cc(-c2ccccc2S(C)(=O)=O)c2c(=O)[nH]n(-c3ccn[nH]3)c2n1 [Compound 152]	22 nM
C[C@@H]1COCCN1c1cc(C2(O)C[C@H]3CC[C@@H](C2)S3)c2cnn(-c3cc[nH]n3)c2n1 (stereo partly shown) [Compound 122]	1.1 nM
C[C@@H]1COCCN1c1cc(C2(O)CCC3(CC2)COC3)c2cnn(-c3cc[nH]n3)c2n1 [Compound 105]	1.1 nM
C[C@@H]1COCCN1c1cc(C2(O)CCN(c3ncccc3C(F)(F)F)CC2)c2cnn(-c3cc[nH]n3)c2n1 [Compound 96]	20 nM
C[C@@H]1COCCN1c1cc([C@]2(O)CC[C@H](C(F)(F)F)CC2)c2cnn(-c3cc[nH]n3)c2n1 [Compound 114]	0.8 nM
C[C@@H]1COCCN1c1cc(-c2cccc(Cl)c2C(N)=O)c2cnn(-c3cc[nH]n3)c2n1 [Compound 130]	13 nM
C[C@@H]1COCCN1c1cc(C2(O)CCN(CC(F)F)CC2)c2cnn(-c3cc[nH]n3)c2n1 [Compound 108]	1.3 nM
C[C@@H]1COCCN1c1cc(C2(O)CCC3(CCOCC3)CC2)c2cnn(-c3cc[nH]n3)c2n1 [Compound 110]	0.7 nM
C[C@@H]1COCCN1c1cc(C2(O)CCC(OC(F)(F)F)CC2)c2cnn(-c3ccn[nH]3)c2n1 (stereo partly shown) [Compound 133]	1.5 nM
C[C@@H]1COCCN1c1cc(-c2cccnc2C(F)(F)F)c2cnn(-c3cc[nH]n3)c2n1 [Compound 144]	1.3 nM
C[C@@H]1COCCN1c1cc(N2CCCOCC2=O)c2cnn(-c3cc[nH]n3)c2n1 [Compound 136]	46 nM
C[C@@H]1COCCN1c1cc([C@@]2(O)C[C@H]3CC[C@@H](C2)O3)c2cnn(-c3cc[nH]n3)c2n1 (stereo in doubt) [Compound 121]	0.9 nM
C[C@@H]1COCCN1c1cc(C2(O)CCC(C(C)(C)C)CC2)c2cnn(-c3ccn[nH]3)c2n1 (stereo partly shown) [Compound 132]	1.9 nM
C[C@@H]1COCCN1c1cc(C2(O)CCC3(CC3)CC2)c2cnn(-c3cc[nH]n3)c2n1 [Compound 123]	0.9 nM
C[C@@H]1COCCN1c1cc(C2=C[C@H]3CC[C@@H](C2)O3)c2cnn(-c3cc[nH]n3)c2n1 [Compound 148]	2.5 nM
C[C@@H]1COCCN1c1cc(C2(O)CC(C)(C)N(C)C(C)(C)C2)c2cnn(-c3cc[nH]n3)c2n1 [Compound 119]	14 nM
C[C@@H]1COCCN1c1cc([C@]2(O)CC[C@@](C)(C#N)CC2)c2cnn(-c3cc[nH]n3)c2n1 [Compound 106]	3.3 nM
C[C@@H]1COCCN1c1cc(-c2cccc(C(F)(F)F)c2C(N)=O)c2cnn(-c3cc[nH]n3)c2n1 [Compound 131]	1.8 nM
C[C@@H]1COCCN1c1cc(N2CCN(c3ccccn3)CC2)c2cnn(-c3cc[nH]n3)c2n1 [Compound 137]	2.1 nM
C[C@@H]1COCCN1c1cc(-c2ccc(F)cc2S(C)(=O)=O)c2cnn(-c3cc[nH]n3)c2n1 [Compound 145]	3.8 nM
Cc1nc(C(N)=O)c(-c2cc(N3CCOC[C@H]3C)nc3c2cnn3-c2cc[nH]n2)s1 [Compound 127]	7 nM
C[C@@H]1COCCN1c1cc([C@]2(O)CC[C@@H](c3ccccc3)CC2)c2cnn(-c3cc[nH]n3)c2n1 [Compound 98]	1.2 nM
C[C@@H]1COCCN1c1cc(-c2ccccc2S(=O)(=O)NC2CC2)c2cnn(-c3cc[nH]n3)c2n1 [Compound 124]	63 nM
C[C@@H]1COCCN1c1cc(-c2ccccc2C(C)(C)O)c2cnn(-c3cc[nH]n3)c2n1 [Compound 128]	2.4 nM

Structure (SMILES)	IC50
COc1ccc(-c2cc(N3CCOC[C@H]3C)nc3c2cnn3-c2cc[nH]n2)c(C(F)(F)F)c1 [Compound 143]	7.2 nM
C[C@@H]1COCCN1c1cc(-c2cc(Cl)cnc2N)c2cnn(-c3cc[nH]n3)c2n1 [Compound 140]	7.2 nM
C[C@@H]1COCCN1c1cc([C@]2(O)CC[C@@]3(CCCO3)CC2)c2cnn(-c3cc[nH]n3)c2n1 [Compound 112]	0.8 nM
C[C@@H]1COCCN1c1cc(C2(O)C3CCC2CN(C)C3)c2cnn(-c3cc[nH]n3)c2n1 (stereo partly shown) [Compound 117]	38 nM
C[C@@H]1COCCN1c1cc(-c2cccnc2C(N)=O)c2cnn(-c3cc[nH]n3)c2n1 [Compound 129]	11 nM
C[C@@H]1COCCN1c1cc(-c2cccnc2C(F)(F)F)c2c(=O)[nH]n(-c3ccn[nH]3)c2n1 [Compound 151]	9.1 nM
C[C@@H]1COCCN1c1cc(-c2cccnc2N)c2cnn(-c3cc[nH]n3)c2n1 [Compound 125, (R)-3-(6-(3-methylmorpholino)-1-(1H-pyrazol-3-yl)-1H-pyrazolo[3,4-b]pyridin-4-yl)pyridin-2-amine]	11 nM
Cc1ccc(-c2cc(N3CCOC[C@H]3C)nc3c2cnn3-c2cc[nH]n2)c(N)n1 [Compound 139]	4.2 nM
COC1CCC(O)(c2cc(N3CCOC[C@H]3C)nc3c2cnn3-c2cc[nH]n2)CC1 (stereo partly shown) [Compound 101]	1 nM
C[C@@H]1COCCN1c1cc([C@]2(O)CCC[C@H](C(F)(F)F)C2)c2cnn(-c3cc[nH]n3)c2n1 [Compound 104]	2.4 nM
C[C@@H]1COCCN1c1cc(-c2ccc(F)cc2C(F)(F)F)c2cnn(-c3cc[nH]n3)c2n1 [Compound 142]	3.6 nM
C[C@@H]1COCCN1c1cc(-c2ccc(C(F)(F)F)nc2N)c2cnn(-c3cc[nH]n3)c2n1 [Compound 138]	9.4 nM
C[C@@H]1COCCN1c1cc([C@]2(O)CC[C@]3(CCCO3)CC2)c2cnn(-c3cc[nH]n3)c2n1 [Compound 113]	2.1 nM
C[C@@H]1COCCN1c1nc2c(cnn2-c2cc[nH]n2)c(-c2ccccc2C(F)(F)F)c1Cl [Compound 149]	27 nM
COCC1CCC(O)(c2cc(N3CCOC[C@H]3C)nc3c2cnn3-c2cc[nH]n2)CC1 (stereo partly shown) [Compound 102]	0.9 nM
C[C@@H]1COCCN1c1cc(-c2ccc(C3CC3)nc2N)c2cnn(-c3cc[nH]n3)c2n1 [Compound 146]	3.1 nM
C[C@@H]1COCCN1c1cc(C2(O)CCC(C#N)CC2)c2cnn(-c3cc[nH]n3)c2n1 (stereo partly shown) [Compound 103]	1.7 nM
C[C@@H]1COCCN1c1cc(C2(O)CCN(c3ccc(C#N)cc3)CC2)c2cnn(-c3cc[nH]n3)c2n1 [Compound 95]	2 nM
C[C@@H]1COCCN1c1cc([C@]2(O)CC[C@H](c3ccccc3)CC2)c2cnn(-c3cc[nH]n3)c2n1 [Compound 97]	0.9 nM
C[C@@H]1COCCN1c1cc(C2(O)CCN(CC(F)(F)F)CC2)c2cnn(-c3cc[nH]n3)c2n1 [Compound 120]	1.2 nM
C[C@@H]1COCCN1c1cc(C2(O)CCN(c3ccc(Cl)cc3)CC2)c2cnn(-c3cc[nH]n3)c2n1 [Compound 94]	1.9 nM
C[C@@H]1COCCN1c1cc(-c2ccccc2C(F)(F)F)c2c(=O)[nH]n(-c3ccn[nH]3)c2n1 [Compound 150, 6-[(3R)-3-methylmorpholin-4-yl]-1-(1H-pyrazol-5-yl)-4-[2-(trifluoromethyl)phenyl]-2H-pyrazolo[3,4-b]pyridin-3-one]	7.8 nM
C[C@@H]1COCCN1c1cc(C2(O)CCOC3(CCC3)C2)c2cnn(-c3cc[nH]n3)c2n1 (stereo partly shown) [Compound 107]	2 nM
C[C@@H]1COCCN1c1cc(C2(O)CCN(c3cccc(F)c3)CC2)c2cnn(-c3cc[nH]n3)c2n1 [Compound 93]	0.5 nM
C[C@@H]1COCCN1c1cc(C2(O)CCN(C(C)(C)C)CC2)c2cnn(-c3cc[nH]n3)c2n1 [Compound 109]	17 nM
C[C@@H]1COCCN1c1cc(C2(O)CCN(c3ccc(F)cc3)CC2)c2cnn(-c3cc[nH]n3)c2n1 [Compound 116]	1.2 nM
